Reference: US6608082B1, “Treatment of erectile dysfunction using isoquinoline compound melanocortin receptor ligands” (Lion Bioscience AG, priority 1998, dated 2003)
Read-outs that look alike come from different tables or passages of the source. Each block holds one compound with its values, some of them ahead of it.

Tests used:
[1] = target: T1, MCR-4 (Homo sapiens, UniProt P32245); assay: Melanocortin receptor binding assay, competition with 125I-HP 467, HEK 293 cells expressing hMCR-4; details: for IC50: read-out: MC-4 IC50
T1 construct: expressed in transfected cells; host or cells: HEK 293
Summary of the method: (§1)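 Intact-cell competition binding, 2.5 hr at 37 °C, in PBS/10% calf serum/1 mM CaCl2; hMCR-4 cells at 4×10^3 per tube, hMCR-1 cells at 2×10^4 per tube. Filtration on BSA/CaCl2-soaked GF/B, cold 50 mM Tris pH 7.4 washes, scintillation count.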

[2] = target: T2, MCR-1 (Homo sapiens, UniProt Q01726); assay: Melanocortin receptor binding assay, competition with 125I-HP 467, HEK 293 cells expressing hMCR-1; details: for IC50: read-out: MC-1 IC50
T2 construct: expressed in transfected cells; host or cells: HEK 293
Summary of the method: as §1

[3] = TRG 2414 library, inhibition of binding of 125I-HP 467, HEK 293 cells expressing MCR-4
[4] = TRG 2414 library, inhibition of binding of 125I-HP 467, HEK 293 cells expressing MCR-1
[5] = TRG 2406 and TRG 2407 libraries, inhibition of binding of 125I-HP 467
[6] = competition with 125I-HP 467, HEK 293 cells expressing MCR-4
[7] = competition with 125I-HP 467, HEK 293 cells expressing MCR-1
[8] = TRG 2408 and TRG 2409 libraries, inhibition of 125I-HP 467 binding
[9] = inhibition of binding of 125I-HP 467, HEK 293 cells expressing MCR-4
[10] = inhibition of binding of 125I-HP 467, HEK 293 cells expressing MCR-1
[11] = inhibition of binding of 125I-HP 467, HEK 293 cells expressing MCR-4, TRG 2414 library
[12] = inhibition of binding of 125I-HP 467, HEK 293 cells expressing MCR-1, TRG 2414 library

T2 sequence (Q01726 whole entry): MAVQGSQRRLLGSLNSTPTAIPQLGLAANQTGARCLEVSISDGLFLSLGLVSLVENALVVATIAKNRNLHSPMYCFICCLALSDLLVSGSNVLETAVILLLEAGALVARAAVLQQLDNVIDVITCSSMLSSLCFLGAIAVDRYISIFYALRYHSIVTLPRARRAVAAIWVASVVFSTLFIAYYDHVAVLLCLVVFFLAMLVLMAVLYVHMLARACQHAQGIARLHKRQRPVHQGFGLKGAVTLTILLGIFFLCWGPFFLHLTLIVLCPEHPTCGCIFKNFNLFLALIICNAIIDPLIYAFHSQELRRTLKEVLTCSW
T1 sequence (P32245 whole entry): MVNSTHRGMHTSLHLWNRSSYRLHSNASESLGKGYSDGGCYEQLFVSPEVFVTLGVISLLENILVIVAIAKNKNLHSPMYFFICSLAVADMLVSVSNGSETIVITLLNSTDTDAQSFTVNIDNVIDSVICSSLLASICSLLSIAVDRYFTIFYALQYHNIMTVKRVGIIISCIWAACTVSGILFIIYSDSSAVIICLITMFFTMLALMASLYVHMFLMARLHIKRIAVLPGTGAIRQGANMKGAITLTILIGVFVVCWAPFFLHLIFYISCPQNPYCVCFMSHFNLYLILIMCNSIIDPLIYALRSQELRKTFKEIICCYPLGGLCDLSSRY

SMILES: CCCOc1ccc(C2C(CNCc3ccccc3)c3ccccc3CN2CCCCC(CN)NCc2ccccc2)cc1 (centres unmarked) [Cmpd 191]
- IC50 [1, 3]: 5530 nM
- IC50 [2, 4]: 1950 nM

SMILES: CNC(CN)CCCCN1Cc2ccccc2C(CNCc2ccccc2O)C1c1ccc(Oc2ccccc2)cc1 (centres unmarked) [TRG 2406-13]
- IC50 [1, 5]: 1290 nM
- IC50 [2, 5]: 180 nM

SMILES: COc1ccc(CCNCC2c3ccccc3CN(CCCCC(CN)NCC(C)c3ccc(CC(C)C)cc3)C2c2ccccc2Br)cc1 (centres unmarked) [Cmpd 228]
- IC50 [1, 3]: 8790 nM
- IC50 [2, 4]: 17700 nM

SMILES: CNC(CN)CCCN1Cc2ccccc2C(CNCCc2ccccc2)C1c1ccc([N+](=O)[O-])cc1 (centres unmarked) [TRG 2413-16]
- IC50 [1, 9]: 400 nM
- IC50 [2, 10]: 1270 nM

SMILES: NCC(N)CCCCN1Cc2ccccc2C(CNCc2ccccc2C(F)(F)F)C1c1cc(C(F)(F)F)cc(C(F)(F)F)c1 (centres unmarked) [TRG 2414-41]
- IC50 [1, 11]: 15600 nM
- IC50 [2, 12]: 34200 nM

SMILES: CC(C)Cc1ccc(C(C)CNC(CN)CCCCN2Cc3ccccc3C(CNCc3ccccc3C(F)(F)F)C2c2cc(C(F)(F)F)cc(C(F)(F)F)c2)cc1 (centres unmarked) [TRG 2414-44]
- MC-4 IC50 [1, 11]: no fit
- MC-1 IC50 [2, 12]: no fit

SMILES: NCC(CCCCN1Cc2ccccc2C(CNC2CCCCCC2)C1c1cccc(Oc2ccccc2)c1)NCCc1ccccc1 (centres unmarked) [TRG 2414-114]
- IC50 [1, 11]: 4830 nM
- IC50 [2, 12]: 8960 nM

SMILES: NCC(CCCCN1Cc2ccccc2C(CNCCc2cccc(Cl)c2)C1c1cccc(Oc2ccccc2)c1)NCCc1ccccc1 (centres unmarked) [TRG 2414-94]
- IC50 [1, 11]: 8200 nM
- IC50 [2, 12]: 16900 nM

SMILES: NCC(N)CCCCN1Cc2ccccc2C(CNCc2ccccc2)C1c1ccccc1Br (centres unmarked) [Cmpd 229]
- IC50 [1, 3]: 1290 nM
- IC50 [2, 4]: 8630 nM

SMILES: CCOc1ccccc1CNCC1c2ccccc2CN(CCCCC(CN)NCCc2ccccc2)C1c1cc(C(F)(F)F)cc(C(F)(F)F)c1 (centres unmarked) [TRG 2414-46]
- IC50 [1, 11]: 4250 nM
- IC50 [2, 12]: 6540 nM

SMILES: NCC(CCCN1Cc2ccccc2C(CN)C1c1ccc(-c2ccccc2)cc1)NCC1CCCCC1 (centres unmarked) [TRG 2411-148]
- IC50 [1, 6]: 1960 nM
- IC50 [2, 7]: 960 nM

SMILES: CCNc1ccc(C2C(CNCc3ccccc3C(F)(F)F)c3ccccc3CN2CCCCC(CN)NC)cc1 (centres unmarked) [TRG 2407-53]
- IC50 [1, 5]: 790 nM
- IC50 [2, 5]: 1270 nM

SMILES: CCNc1ccc(C2C(CNCCc3ccccc3)c3ccccc3CN2CCCC(CN)NCCc2ccccc2)cc1 (centres unmarked) [TRG 2411-155]
- IC50 [1, 9]: 720 nM
- IC50 [2, 10]: 90 nM

SMILES: COc1ccc(CNCC2c3ccccc3CN(CCCCC(N)CN)C2c2cccc(Oc3ccccc3)c2)cc1 (centres unmarked) [TRG 2414-101]
- IC50 [1, 11]: 1260 nM
- IC50 [2, 12]: 2500 nM

Continued, values first:

- IC50 [1, 5]: 360 nM
- IC50 [2, 5]: 1030 nM
SMILES: CNC(CN)CCCCN1Cc2ccccc2C(CNCCc2ccccc2)C1c1ccc(Cl)cc1Cl (centres unmarked) [TRG 2407-21]

- IC50 [1, 6]: 1710 nM
- IC50 [2, 7]: 90 nM
SMILES: CCCCNc1ccc(C2C(CNC3CCCCC3)c3ccccc3CN2CCCCC(CN)NCc2ccc(Cl)cc2)cc1 (centres unmarked) [TRG 2411-94]

- IC50 [1, 8]: 9060 nM
- IC50 [2, 8]: 5650 nM
SMILES: CNCCNC(CN)CCN1Cc2ccccc2C(CNC2CCCCC2)C1c1ccc(Cl)cc1Cl (centres unmarked) [TRG 2408-104]

- IC50 [1, 5]: 800 nM
- IC50 [2, 5]: 1790 nM
SMILES: CNC(CN)CCCCN1Cc2ccccc2C(CNCCc2cccc(Cl)c2)C1c1ccc(Cl)cc1Cl (mixture of isomers) [TRG 2407-24]

- IC50 [1, 9]: 1760 nM
- IC50 [2, 10]: 460 nM
SMILES: CCOc1ccc(C2C(CN)c3ccccc3CN2CCCC(CN)NCCC2CCCCC2)cc1 (centres unmarked) [TRG 2415-10]

- IC50 [1, 9]: 2130 nM
- IC50 [2, 10]: 4800 nM
SMILES: CCc1ccc(C2C(CO)c3ccccc3CN2CCCC(CN)NCCC2CCCCC2)cc1 (centres unmarked) [TRG 2415-7]

- IC50 [1, 8]: 17100 nM
- IC50 [2, 8]: 1940 nM
SMILES: CNCCNC(CN)CCCCN1Cc2ccccc2C(CNC2CCCCC2)C1c1ccc(-c2ccccc2)cc1 (mixture of isomers) [TRG 2408-24]

- IC50 [1, 6]: 1650 nM
- IC50 [2, 7]: 600 nM
SMILES: CCCCNc1ccc(C2C(CNC3CCCCC3)c3ccccc3CN2CCCCC(CN)NCCc2ccc3ccccc3c2)cc1 (centres unmarked) [TRG 2411-96]

- IC50 [1, 5]: 3850 nM
- IC50 [2, 5]: 4130 nM
SMILES: CNC(CN)CCCCN1Cc2ccccc2C(CNCc2ccccc2)C1c1ccc(Cl)cc1Cl (centres unmarked) [TRG 2407-10]

- IC50 [1, 3]: 18000 nM
- IC50 [2, 4]: 14000 nM
SMILES: CC(C)Cc1ccc(C(C)CNC(CN)CCCCN2Cc3ccccc3C(CNC3CCCCCC3)C2c2ccccc2Br)cc1 (centres unmarked) [Cmpd 236]

- IC50 [1, 6]: 1030 nM
- IC50 [2, 7]: 110 nM
SMILES: CCCCNc1ccc(C2C(CNC3CCCCC3)c3ccccc3CN2CCCCC(CN)NCc2ccc(OC)cc2)cc1 (centres unmarked) [TRG 2411-95]
